Results from article PMC8506967, “Binding specificity and function of the SWI/SNF subunit SMARCA4 bromodomain interaction with acetylated histone H3K14” (The Journal of Biological Chemistry, 2021).
Ends that are not written are not given here.

What was measured:
four family VIII BD = conditions: cited from earlier work
Excerpt: How SMARCA4 targets, is recruited to, and interacts with chromatin substrates to induce ATP-dependent nucleosome remodeling has been a long-standing question. Recent structures of the SMARCA4 catalytic-core domain in complex with a nucleosome core particle, as well as a nucleosome-bound SWI/SNF complex comprising SMARCA4 and nine auxiliary subunits, provided insights into the mechanism of SWI/SNF remodeling ([25], [26]). But the structural basis underlying SMARCA4 recognition of its histone tail target has remained elusive despite the existence of SMARCA4 structures in the apo state ([1], [27] ...

SMARCA2 = conditions: cited from earlier work
Excerpt: (§1) We next asked if the SMARCA4-specific residues are also conserved in other family VIII BDs that bind H3K14ac. […] PBRM-1 is an SWI/SNF accessory protein in the PBAF complex that contains six tandem N-terminal BDs ([42]). The second and fourth PBRM-1 BDs (BD(2) and BD(4)) bind H3K14ac ([43], [44]). Due to the low sequence homology outside of the central α A and αB helices ([1]), we aligned the family VIII BDs based on the superposition of their structures and added CeSMARCA4 to the alignm ...

PBRM-1 BD(2) and BD(4) = conditions: cited from earlier work
Excerpt: as §1

PBRM-1 = conditions: cited from earlier work
Excerpt: as §1

HsPBRM-1 BD(5) = conditions: PBRM-1 BD(5); cited from earlier work
Excerpt: We superimposed each family VIII BD structure onto the CeSMARCA4-BD structure and plotted the deviation for each residue (Fig. 5D and Fig. S2). […] The overall roo ...

ASH1L-BD = conditions: cited from earlier work
[1] = tested on: Saccharomyces cerevisiae Sth1 (ScSth1) BD; conditions: cited from earlier work
Excerpt: How SMARCA4 targets, is recruited to, and interacts with chromatin substrates to induce ATP-dependent nucleosome remodeling has been a long-standing question. Recent structures of the SMARCA4 catalytic-core domain in complex with a nucleosome core particle, as well as a nucleosome-bound SWI/SNF complex comprising SMARCA4 and nine auxiliary subunits, provided insights into the mechanism of SWI/SNF remodeling ([25], [26]). […] Water-mediated hydrogen bonds stabilize the interaction between H3R17 and Tyr1270 on the αC-helix. || We next asked if the SMARCA4-specific residues are also conserved in other family VIII BDs that bind H3K14ac. […] PBRM-1 is an SWI/SNF accessory protein in the PBAF complex that contains six tandem N-terminal BDs ([42]). The second and fourth PBRM-1 BDs (BD(2) and BD(4)) bind H3K14ac ([43], [44]). Due to the low sequence homology outside of the central α A and αB helices ([1]), we aligned the family VIII BDs based on the superposition of their structures and added CeSMARCA4 to the alignm ...

SMARCA4 = conditions: C-terminal BD motif; cited from earlier work
Excerpt: SMARCA4/BRG1 is an essential catalytic core subunit of the roughly two-megadalton Switch/Sucrose Nonfermenting (SWI/SNF) multiprotein complex, which uses the energy of ATP hydrolysis to remodel chromatin by perturbing interactions between histone core particles and DNA ([14], [15]). SMARCA4 can remodel nucleosomal substrates by itself in vitro ([16], [17]) and is functionally and structurally conserved among eukaryotes ([14], [18]).

BAZ2B BD = target: T1, BAZ2B BD (Homo sapiens, UniProt Q9UIF8); test: ITC, BAZ2B bromodomain; assay type: binding; conditions: BAZ2B wt, GST +, 293 or 298 K, 10 mM HEPES, 100 mM NaCl, 2.5% glycerol, pH 7.3
T1 sequence (Q9UIF8 2060-2164 limits assumed): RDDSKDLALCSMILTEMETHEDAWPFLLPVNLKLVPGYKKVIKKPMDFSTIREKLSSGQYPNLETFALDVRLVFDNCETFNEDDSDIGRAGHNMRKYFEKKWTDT

[2] = target: T2, CeSMARCA4 BD crystallisation construct (residues Lys1176–Glu1296, Phe1287Ser) (C. elegans, UniProt G5EF53 1176-1296, Phe1287Ser); test: crystal structure; BD incubated with 2:1 M excess H3_(7–20)K14ac peptide at 4 °C, sitting-drop vapor diffusion, 35% PEG smear; 1.29 Å, space group P4_(1)2_(1)2; conditions: both partners purified
T2 construct: SWSN-4 (CeSMARCA4), C. elegans, bromodomain, residues Lys1176-Glu1296 with the point mutation Phe1287Ser; pGEX-6P-1 vector with an HRV 3C protease site; also called untagged CeSMARCA4 BD; source: E. coli BL21 (DE3), purified (Glutathione Sepharose, PreScission cleavage, Q Sepharose, Sephacryl S-200); not shown: GST, N-terminal, cleaved
T2 sequence (looked up): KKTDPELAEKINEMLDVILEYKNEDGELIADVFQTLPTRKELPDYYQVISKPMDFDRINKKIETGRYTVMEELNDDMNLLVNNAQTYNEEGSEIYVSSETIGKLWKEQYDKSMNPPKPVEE

[3] = target: T3, CeSMARCA4 BD with the GST tag cleaved off (ITC) (C. elegans, UniProt G5EF53 1179-1289); test: ITC; MicroCal Auto-iTC200, 293 or 298 K, 10 mM HEPES, 100 mM NaCl, 2.5% glycerol, pH 7.3; protein 50–100 μM in the cell, peptide 500–1000 μM in the syringe; single-site binding model; conditions: both partners purified
T3 construct: SWSN-4 (CeSMARCA4), C. elegans, bromodomain; the Asp1179-Asn1289 construct is the one named for ITC; A protease site and cleavage are described only for the crystallisation construct (K1176-E1296, F1287S); also called CeSMARCA4 bromodomain, GST tag removed; source: E. coli BL21 (DE3), purified, GST tag cleaved off; not shown: GST, N-terminal, cleaved
T3 sequence (looked up): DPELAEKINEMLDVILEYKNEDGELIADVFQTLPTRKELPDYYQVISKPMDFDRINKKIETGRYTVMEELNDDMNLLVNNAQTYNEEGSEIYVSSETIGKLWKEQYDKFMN

[4] = target: T4, CeSMARCA4 GST–BD fusion (C. elegans SMARCA4/SWSN-4 bromodomain, residues D1179–N1289, GST-tagged) (C. elegans, UniProt G5EF53 1179-1289); test: as above; conditions: both partners purified
T4 construct: SWSN-4 (CeSMARCA4, ortholog of human SMARCA4/BRG1), C. elegans, bromodomain, residues D1179-N1289; Cloned from Bristol N2 cDNA into a pGEX vector; also called GST-CeSMARCA4; CeSMARCA4 BD; source: E. coli BL21 (DE3), purified (Glutathione Sepharose 4B, eluted with reduced glutathione, dialysed); not shown: GST, N-terminal, kept
T4 sequence (looked up): T3 sequence (looked up)

human BAZ2B bromodomain = target: T5, human BAZ2B bromodomain (human); test: ITC
T5 chain: T1 sequence (Q9UIF8 2060-2164 limits assumed)

## O=C(/C=C/N1C[C@H]2C[C@@H]1CN2c1ccccn1)c1ccccc1O [PFI-3]
Four family VIII BD
  selectivity of chemical probe: selective for four family VIII BD

## H3K14ac: lysine 14 acetylation on histone H3 (ARKSTGGKAPRKQL; not fully specified (residue 8); also: K14 acetylation, chain position not given here)
SMARCA2
  selective H3K14ac binding: reported to selectivity bind
PBRM-1 BD(2) and BD(4)
  H3K14ac binding: bind
PBRM-1
  selective H3K14ac binding: reported to selectivity bind
HsPBRM-1 BD(5)
  H3K14ac binding: cannot bind
ASH1L-BD
  H3K14ac binding: unable to bind
[1]
  binding of mutated H3 peptide / acetylated mark to ScSth1 BD: binds more promiscuously
  selective H3K14ac binding: reported to selectivity bind
SMARCA4
  H3K14ac recognition: capable of recognizing

## CC(=O)NCCCC[C@H](NC(=O)CNC(=O)CNC(=O)[C@@H](NC(=O)[C@H](CO)NC(=O)[C@H](CCCCN)NC(=O)[C@H](CCCNC(=N)N)NC(=O)[C@H](C)N)[C@@H](C)O)C(=O)N[C@@H](C)C(=O)N1CCC[C@H]1C(=O)N[C@@H](CCCNC(=N)N)C(=O)N[C@@H](CCCCN)C(=O)N[C@@H](CCC(N)=O)C(=O)N[C@@H](CC(C)C)C(=O)O [H3_7–20K14ac]
BAZ2B BD
  Kd: 12.1 ± 0.2 µM

B1: histone H3_(7–20)K14ac peptide (peptide, UniProt P68431 8-21, looked up)
peptide: ARKSTGGK(Ac)APRKQL
notes: histone H3 N-terminal tail, residues 7-20; also called H3K14ac peptide
[2]
  binding result: binds
[3]
  Kd: 23.4 ± 0.8 µM
[4]
  Kd: 11.6 ± 0.1 µM
Human BAZ2B bromodomain
  Kd: 12.1 µM
